Data as given in US20260364175A1, “COMPOSITIONS FOR DRUG ADMINISTRATION” (Aegis Therapeutics, LLC, priority 2018, published 2026).
“And” between values parts separate entries of the source, which are not always exact repeats. Equal entries are not always repeated. Structures can show the parent of a compound that is named as a salt.

Legend:
[1] = Octreotide pharmacokinetics after s.c. and oral delivery; conditions: for CL/F: po; for t1/2 1: first peak; for t1/2 2: second peak
Description: C prior to administration. […] Death is confirmed by cervical dislocation. […] Euthanasia is confirmed by cervical dislocation.
Pharmacokinetic analyses is carried out as follows.
Serum half-life (t1/2) is determined as follows.

[2] = system: blood glucose; assay: Ocular administration of insulin plus absorption enhancer, blood glucose in anesthetized rats; format: in vivo, rat (male Sprague-Dawley); conditions: for effect on blood glucose / ocular insulin absorption: 0.5% enhancer with 0.2% insulin eye drops; for Blood Glucose Concentration: 0.5% surfactant, insulin eye drops; for effect on ocular insulin absorption (alkyl chain length comparison): alkylmaltosides with insulin eye drops
[3] = system: blood glucose; assay: Ocular administration of glucagon plus surfactant, blood glucose in rats; format: in vivo, rat; conditions: for Blood Glucose Concentration: 0.5% surfactant, glucagon eye drops after insulin; for effect on ocular glucagon absorption / blood D-glucose: eye drops, 0.5% surfactant plus glucagon (30 μg)
[4] = cited from earlier work
[5] = Buccal fast-dispersing melatonin tablets in rabbits; conditions: for bioavailability: fast-disintegrating tablet, buccal
Description: Thereafter, the animals return to consciousness. At individual time point over a two hour period, 1 mL blood samples are collected from the central ear artery. […] All samples are stored at −70 °C until assaying for melatonin. Melatonin is measured using a commercial ELISA kit manufactured by GenWay Biotech Inc., San Diego, CA.

[6] = system: blood glucose; assay: Intranasal insulin with/without […] TDM, anesthesia-induced hyperglycemia model; format: in vivo, mouse
From the text: Intranasal administration of drugs or agents are possible in animal models e.g., mice and rats, although the nasal opening in is very small. […] Hyperglycemic animals were induced by an intraperitoneal (IP) injection containing xylazine-ketamine and blood glucose levels were monitored over a period of time.

[7] = insulin alone intranasal, minus TDM

What does the source list for `C[C@@H](O)[C@@H]1NC(=O)[C@H](CCCCN)NC(=O)[C@@H](Cc2c[nH]c3ccccc23)NC(=O)[C@H](Cc2ccccc2)NC(=O)[C@@H](NC(=O)[C@H](N)Cc2ccccc2)CSSC[C@@H](C(=O)N[C@H](CO)[C@@H](C)O)NC1=O` (relative stereo) [Octreotide, L-Cysteinamide, D-phenylalanyl-L-cysteinyl-L-phenylalanyl-D-tryptophyl-L-lysyl-L-threonyl-N-[2-hydroxy-1-(hydroxymethyl)propyl]-, cyclic (2→7)-disulfide; [R—(R*, R*)]acetate salt]?
CL/F ([1]; mouse, in vivo, 1 mg/kg, oral 3.0% DDM): 54900 mL/min; CL/F ([1]; mouse, in vivo, 1 mg/kg, oral […] DDM): 28400 mL/min; half-life ([1]; mouse, in vivo, sc, 1 mg/kg): 41.2 min; t1/2 1 ([1]; oral 0.5% DDM, 1 mg/kg): 1.56 min; t1/2 2 ([1]; oral 0.5% DDM, 1 mg/kg): 52.50 min; AUC1 ([1]; oral 0.5% DDM, 1 mg/kg): 353.03 ng/mL/min; AUC2 ([1]; oral 0.5% DDM, 1 mg/kg): 901.04 ng/mL/min; t1/2 ([1]; oral 0.5% DDM, 1 mg/kg): 52.1 min; t1/2 ([1]; oral 0.5% DDM, 1 mg/kg, listed as octreotide): 53.1 min and 52.1 min; Cmax1 higher than Cmax2 ([1]; oral 0.5% Intravail): more than 2 fold; t1/2 1 ([1]; oral 3.0% DDM, 1 mg/kg): 1.33 min; t1/2 2 ([1]; oral 3.0% DDM, 1 mg/kg): 22.28 min; AUC1 ([1]; oral 3.0% DDM, 1 mg/kg): 21.50 ng/mL/min; AUC2 ([1]; oral 3.0% DDM, 1 mg/kg): 119.74 ng/mL/min; t1/2 ([1]; oral 3.0% DDM, 1 mg/kg): 23.6 min; t1/2 1 ([1]; oral […] DDM, 1 mg/kg): 0.96 min; AUC1 ([1]; oral […] DDM, 1 mg/kg): 97.80 ng/mL/min; AUC2 ([1]; oral […] DDM, 1 mg/kg): 132.90 ng/mL/min; t1/2 ([1]; oral […] DDM, 1 mg/kg): 25.8 min; t1/2 1 ([1]; s.c., 1 mg/kg): 2.04 min; t1/2 2 ([1]; s.c., 1 mg/kg): 39.15 min; AUC1 ([1]; s.c., 1 mg/kg): 38.39 ng/mL/min; AUC2 ([1]; s.c., 1 mg/kg): 251.73 ng/mL/min

For `CCCCCCCCCCO[C@@H]1O[C@H](CO)[C@@H](O[C@H]2O[C@H](CO)[C@@H](O)[C@H](O)[C@H]2O)[C@H](O)[C@H]1O` [Decyl Maltoside, decyl-β-D-maltoside], which “effect on blood glucose / ocular insulin absorption” value [2] is on record?
The value was “maintained in the normoglycemic (80-120 mg/dl) or near-normoglycemic (120-160 mg/dl) range”.

And the “Blood Glucose Concentration” value ([2]; 80 min)?
The value was 110 mg/dL.

What about the “Blood Glucose Concentration” value ([2]; 90 min) of the same molecule?
Its value is 120 mg/dL.

And the “Blood Glucose Concentration” value ([2]; 100 min)?
Its value is 92 mg/dL.

And the “Blood Glucose Concentration” value ([2]; 110 min)?
The value was 81 mg/dL.

What about the “Blood Glucose Concentration” value ([2]; 120 min) of the same molecule?
The value was 87 mg/dL.

What about the “effect on ocular insulin absorption (alkyl chain length comparison)” value (“effect … (alkyl chain length comparison)” for short) [2] of the same molecule?
The value was “less absorption enhancing activity”.

What about the “Blood Glucose Concentration” value ([3]; 130 min) of the same molecule?
Its value is 95 mg/dL.

What about the “Blood Glucose Concentration” value ([3]; 140 min) of the same molecule?
Its value is 99 mg/dL.

What about the “Blood Glucose Concentration” value ([3]; 180 min) of the same molecule?
The value was 180 mg/dL.

And the “effect on ocular glucagon absorption / blood D-glucose” value [3]?
Its value is “increase significantly”.

Which “effect on blood glucose / ocular insulin absorption” value [2] does the source give for `CCCCCCCCCCCCCO[C@@H]1O[C@H](CO)[C@@H](O[C@H]2O[C@H](CO)[C@@H](O)[C@H](O)[C@H]2O)[C@H](O)[C@H]1O` [Tridecyl Maltoside, tridecyl-β-D-maltoside] here?
The value was “effective as absorption enhancers”.

And the “Blood Glucose Concentration” value ([2]; 40 min)?
Its value is 100 mg/dL.

What about the “Blood Glucose Concentration” value ([2]; 50 min) of the same molecule?
The value was 87 mg/dL.

And the “Blood Glucose Concentration” value ([2]; 80 min)?
The value was 79 mg/dL.

And the “Blood Glucose Concentration” value ([2]; 90 min)?
The value was 85 mg/dL.

What about the “Blood Glucose Concentration” value ([2]; 100 min) of the same molecule?
Its value is 76 mg/dL.

And the “Blood Glucose Concentration” value ([2]; 110 min)?
Its value is 74 mg/dL.

And the “Blood Glucose Concentration” value ([2]; 120 min)?
Its value is 75 mg/dL.

And the “effect on ocular insulin absorption” value ([2]; […] enhancer with insulin eye drops)?
Its value is “sustained for the two hour time course of the experiment”.

And the “effect … (alkyl chain length comparison)” value [2]?
The value was “more effective”.

What about the “Blood Glucose Concentration” value ([3]; 130 min) of the same molecule?
The value was 82 mg/dL.

And the “effect on ocular glucagon absorption / blood D-glucose” value [3]?
Its value is “increase significantly”.

Which “effect on blood glucose / ocular insulin absorption” value [2] does the source give for `CCCCCCCOC1O[C@H](CO)[C@@H](O)[C@H](O)[C@H]1O` (stereo partly drawn) [heptylglucoside, heptylglucopyranoside] here?
The value was “ineffective”.

Which “effect on blood glucose / ocular insulin absorption” value [2] does the source give for `CCCCCCOC1O[C@H](CO)[C@@H](O)[C@H](O)[C@H]1O` (stereo partly drawn) [hexylglucoside, Hexylglucopyranoside] here?
Its value is “ineffective”.

Which results are given for `COc1ccc2[nH]cc(CCNC(C)=O)c2c1` [melatonin, 5-methoxy-N-acetyltryptamine]?
mean elimination half-life ([4]; human, in vivo): roughly 45 minutes; absolute bioavailability ([4]; oral tablets, normal healthy volunteers (DeMuro et al.)): approximately 15%; oral bioavailability (estimated) ([4]; oral): 30-50%; bioavailability ([5]; with 1% to 2% alkylsaccharide): at least 75%; bioavailability ([5]; without alkylsaccharide): less than 50%; time to maximal concentration vs tablets without alkylsaccharide ([5]; with alkylsaccharide): approximately one half the time

For `CCCCCCCCCOC1O[C@H](CO)[C@@H](O)[C@H](O)[C@H]1O` (stereo partly drawn) [nonylglucoside, nonylglucopyranoside], which “effect on blood glucose / ocular insulin absorption” value [2] is on record?
Its value is “effectively stimulated insulin absorption”.

And the Blood Glucose ([2]; insulin eye drops + 0.5%, reduced level, time not given)?
Its Blood Glucose is 150 mg/dL.

What about the Blood Glucose ([2]; insulin eye drops + 0.5%, starting level) of the same molecule?
Its Blood Glucose is 297 mg/dL.

Which “effect … (alkyl chain length comparison)” value [2] does the source give for `CCCCCCCCO[C@@H]1O[C@H](CO)[C@@H](O[C@H]2O[C@H](CO)[C@@H](O)[C@H](O)[C@H]2O)[C@H](O)[C@H]1O` [octyl maltoside, Octyl-β-D-maltoside] here?
Its value is “less absorption enhancing activity”.

For decylsucrose, which Blood Glucose ([2]; insulin eye drops + 0.5%, 120 min) is on record?
The Blood Glucose was 164 mg/dL.

What about the Blood Glucose ([2]; insulin eye drops + 0.5%, time 0) of the same molecule?
Its Blood Glucose is 313 mg/dL.

Which “Blood Glucose Concentration” value ([2]; 40 min) does the source give for dodecylsucrose [Dodecyl Sucrose] here?
The value was 120 mg/dL.

What about the “Blood Glucose Concentration” value ([2]; 90 min) of the same molecule?
The value was 86 mg/dL.

And the Blood Glucose ([2]; insulin eye drops + […], 120 min)?
The Blood Glucose was 150 mg/dL.

And the Blood Glucose ([2]; insulin eye drops + […], time 0)?
The Blood Glucose was 335 mg/dL.

And the “Blood Glucose Concentration” value ([3]; 130 min)?
Its value is 111 mg/dL.

And the “Blood Glucose Concentration” value ([3]; 140 min)?
Its value is 143 mg/dL.

And the “Blood Glucose Concentration” value ([3]; 150 min)?
The value was 202 mg/dL.

And the “Blood Glucose Concentration” value ([3]; 160 min)?
The value was 247 mg/dL.

And the “Blood Glucose Concentration” value ([3]; 170 min)?
The value was 242 mg/dL.

What about the “Blood Glucose Concentration” value ([3]; 180 min) of the same molecule?
The value was 234 mg/dL.

What about the “Blood Glucose Concentration” value ([3]; 190 min) of the same molecule?
Its value is 211 mg/dL.

What about the “effect on ocular glucagon absorption / blood D-glucose” value [3] of the same molecule?
Its value is “increase significantly”.

Which results are given for insulin (Humalog)?
lowest blood glucose level ([6]; insulin + […] TDM intranasal, about 60 minute time point (about 30 min after insulin)): about 80 mg/dl; blood glucose level ([6]; insulin + […] TDM intranasal, from about 75 minute time point): 80 to 100 mg/dL

For insulin: insulin, which “return of blood glucose to normoglycemic levels” value [6, 7] is on record?
The value was “never return to normoglycemic levels”.

What about the “time after insulin administration at which blood glucose starts to decline” value [6, 7] of the same molecule?
Its value is “about 110 minutes”.

What about the “time mark at which blood glucose starts to decline” value [6, 7] of the same molecule?
Its value is about 120 min.

Which “effect on blood D-glucose” value ([2]; 0.2% in saline only, no enhancer, eye drops) does the source give for regular porcine insulin here?
The value was “remained elevated”.
